Laboratory results published in US10363239B2, “Method for inhibiting growth of cancer cells” (Pain Therapeutics, Inc., priority 2013, dated 2019).
Where two headings read alike, the source gives them in different places.

How the values were obtained:
mu opiate receptor (MOR) = experiment: MOR agonist activity using [35S]GTPγS binding assay in striatal membranes; format: biochemical; conditions: for MOR agonist activity ([35S]GTPγS binding), FLNA-Binding Compound as Agonist 1 μM + BFNA: 1 μM compound + 1 μM β-funaltrexamine
In short: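 Striatal membranes (200 μg) were preincubated 5 min at 30 °C in HEPES pH 7.5 with 100 mM NaCl, 1 mM MgCl2 and 0.5 nM [35S]GTPγS, then 5 min more with 0.1–10 μM compound. Gαo was immunoprecipitated and bound radioactivity counted by scintillation.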

[1] = biological target: FLNA pentapeptide of SEQ ID NO: 1 (Bn-VAKGL) (Homo sapiens, UniProt P21333); experiment: FITC-NLX-based FLNA screening assay (inhibition of FITC-naloxone binding to Bn-VAKGL on streptavidin plates); conditions: for inhibition at 0.01 µM / inhibition at 0.1 µM / inhibition at 1 µM: 10 nM FITC-NLX
[2] = Series C-1, 0.1 μM compound, relative to DAMGO
[3] = Series C-1, 0.1 μM compound, [35S]GTPγS binding to Gαo, striatal membranes
[4] = Series C-1, 1 μM compound + 1 μM β-FNA
[5] = Series C-1, 1 μM compound + β-FNA, relative to DAMGO + BFNA
[6] = Series C-1, 1 μM compound, relative to DAMGO
[7] = Series C-1, 1 μM compound, [35S]GTPγS binding to Gαo, striatal membranes
[8] = read-out: Percent Binding Inhibition, FLNA-binding compound 0.01 μM
[9] = read-out: Percent Binding Inhibition, FLNA-binding compound 0.1 μM
[10] = read-out: Percent Binding Inhibition, FLNA-binding compound 1 μM
[11] = 0.1 μM compound relative to DAMGO
[12] = 1 μM compound + BFNA relative to DAMGO + BFNA
[13] = 1 μM compound relative to DAMGO
[14] = FLNA-binding compound 0.01 μM, read-out: Percent Binding Inhibition
[15] = FLNA-binding compound 0.1 μM, read-out: Percent Binding Inhibition
[16] = FLNA-binding compound 1 μM, read-out: Percent Binding Inhibition

SMILES | % DAMGO (0.1 μM) (mu opiate receptor (MOR); [2]) | Concentration of FLNA-Binding Compound as Agonist 0.1 μM (mu opiate receptor (MOR); [3]) | Concentration of FLNA-Binding Compound as Agonist 1 μM + BFNA (mu opiate receptor (MOR); [4]) | % DAMGO + BFNA (mu opiate receptor (MOR); [5]) | % DAMGO (1 μM) (mu opiate receptor (MOR); [6]) | Concentration of FLNA-Binding Compound as Agonist 1 μM (mu opiate receptor (MOR); [7]) | inhibition at 0.01 µM [1, 8] | inhibition at 0.1 µM [1, 9] | inhibition at 1 µM [1, 10] | MOR agonist activity ([35S]GTPγS binding), FLNA-Binding Compound as Agonist 0.1 μM (mu opiate receptor (MOR); 0.1 μM compound) | % DAMGO (0.1 μM) (mu opiate receptor (MOR); [11]) | MOR agonist activity ([35S]GTPγS binding), FLNA-Binding Compound as Agonist 1 μM (mu opiate receptor (MOR); 1 μM compound) | MOR agonist activity ([35S]GTPγS binding), FLNA-Binding Compound as Agonist 1 μM + BFNA (mu opiate receptor (MOR)) | % DAMGO + BFNA (mu opiate receptor (MOR); [12]) | % DAMGO (1 μM) (mu opiate receptor (MOR); [13]) | inhibition at 0.01 µM [1, 14] | inhibition at 0.1 µM [1, 15] | inhibition at 1 µM [1, 16] | further results
COc1ccc(S(=O)(=O)N2CCC3(CC2)OCCN3S(=O)(=O)c2ccc(C(C)=O)cc2)cc1 [Compound C0048] | 144.2% | 209.1% | 89.9% | 204.3% | 105.3% | 245.3% | 28.5% | 38.9% | 45.9% |  |  |  |  |  |  |  |  |  | 
COc1ccc(S(=O)(=O)N2CCOC23CCN(CC2CC2)CC3)cc1 [Compound C0090M] |  |  |  |  |  |  | 42.5% | 52.5% | 55.8% |  |  |  |  |  |  |  |  |  | % DAMGO (0.1 μM) (mu opiate receptor (MOR); Series C-2, 0.1 μM compound, relative to DAMGO): 137.7%; MOR agonist activity, percent [35S]GTPγS binding at the stated compound concentration (mu opiate receptor (MOR); Series C-2, 0.1 μM compound, [35S]GTPγS binding to Gαo, striatal membranes): 237.0%; MOR agonist activity, percent [35S]GTPγS binding at the stated compound concentration (mu opiate receptor (MOR); Series C-2, 1 μM compound + 1 μM β-FNA): 41.0%; % DAMGO + BFNA (mu opiate receptor (MOR); Series C-2, 1 μM compound + β-FNA, relative to DAMGO + BFNA): 118.8%; % DAMGO (1 μM) (mu opiate receptor (MOR); Series C-2, 1 μM compound, relative to DAMGO): 155.2%; MOR agonist activity, percent [35S]GTPγS binding at the stated compound concentration (mu opiate receptor (MOR); Series C-2, 1 μM compound, [35S]GTPγS binding to Gαo, striatal membranes): 341.0%
CC1CCCC(OCC(O)CN2CC(C)OC(C)C2)C1 (centres unmarked) [Compound A0021] |  |  |  |  |  |  |  |  |  | 133.3% | 79.8% | 275.3% | 12.1% | 34.9% | 112.4% | 36.8% | 43.4% | 49.5% | 
CC1CCC(C(C)C)C(OCC(O)CN2CCCC2)C1 (centres unmarked) [Compound A0001] |  |  |  |  |  |  | 39.7% | 45.6% | 52.4% | 94.3% | 63.1% | 181.7% | 22.2% | 83.8% | 78.9% |  |  |  | 
COc1cc(OC)cc(C(=O)CC2c3c(cc4c(c3OC)OCO4)CC[N+]2(C)C)c1 (centres unmarked) [Compound B0035] |  |  |  |  |  |  | 45.4% | 44.7% | 51% |  |  |  |  |  |  |  |  |  | % DAMGO (0.1 μM) (mu opiate receptor (MOR); Series B, 0.1 μM compound, relative to DAMGO): 109.8%; MOR agonist activity, percent [35S]GTPγS binding at the stated compound concentration (mu opiate receptor (MOR); Series B, 0.1 μM compound, [35S]GTPγS binding to Gαo, striatal membranes): 188.0%; MOR agonist activity, percent [35S]GTPγS binding at the stated compound concentration (mu opiate receptor (MOR); Series B, 1 μM compound + 1 μM β-FNA): 74.2%; % DAMGO + BFNA (mu opiate receptor (MOR); Series B, 1 μM compound + β-FNA, relative to DAMGO + BFNA): 142.4%; % DAMGO (1 μM) (mu opiate receptor (MOR); Series B, 1 μM compound, relative to DAMGO): 93.2%; MOR agonist activity, percent [35S]GTPγS binding at the stated compound concentration (mu opiate receptor (MOR); Series B, 1 μM compound, [35S]GTPγS binding to Gαo, striatal membranes): 248.7%
CC1CN(CC(O)COc2cccc(N(C)C)c2)CC(C)O1 (centres unmarked) [Compound A0042] |  |  |  |  |  |  |  |  |  | 147.5% | 75.2% | 233.1% | 89.5% | 121.1% | 84.5% | 47.2% | 48.3% | 55.8% | 
COc1ccc(S(=O)(=O)N2CCC3(CC2)OCCN3S(=O)(=O)c2ccc(OC)c(OC)c2)cc1OC [Compound C0049] | 73.5% | 106.6% | 81.0% | 184.1% | 90.1% | 210.0% |  |  |  |  |  |  |  |  |  | 25.3% | 27.9% | 30.3% | 
C=CCN1CCC2(CC1)OCCN2S(=O)(=O)c1ccc(C)cc1 [Compound 10] |  |  |  |  |  |  |  |  |  |  |  |  |  |  |  |  |  |  | MOR agonist activity, FLNA-Binding Compound as Agonist 0.1 μM (preliminary study) (mu opiate receptor (MOR); 0.1 μM, average of two runs): 163.1%; MOR agonist activity, FLNA-Binding Compound as Agonist 1 μM + βNFA (preliminary study) (mu opiate receptor (MOR); 1 μM + βNFA, average of two runs): 60.4%; MOR agonist activity, FLNA-Binding Compound as Agonist 1 μM (preliminary study) (mu opiate receptor (MOR); 1 μM, average of two runs): 191.8%; MOR agonist activity (conclusion in words) (mu opiate receptor (MOR); preliminary study): MOR agonists; Binding to FLNA (conclusion in words) ([1]; preliminary study): bind well to FLNA
CC(=O)c1ccc(S(=O)(=O)N2CCC3(CC2)OCC(CCCCN(C)C)N3S(=O)(=O)c2ccc(C(C)=O)cc2)cc1 (centres unmarked) [Compound C0080] | 112.1% | 187.9% | 167.1% | 351.8% | 92.4% | 205.4% |  |  |  |  |  |  |  |  |  | 46.8% | 53.3% | 54.6% | 
